Experimental data: patent US5677282A (Proscript, Inc., priority 1995, dated 1997)

Columns and labels:
[1] = tested on: bovine cartilage explants; test: Bovine cartilage explant assay (35S-GAG release, rhIL-1α stimulated); format: cell-based; conditions: Bos taurus, rhIL-1α 5 ng/mL, 3-4 days culture, read-out: % inhibition (concentration [μM]) of cartilage degradation
Description: A tissue culture assay was used to measure the ability of the compounds of the present invention to slow the degradation of the extracellular matrix by metalloproteinases. This assay measured the amount of ^35 S-glycosaminoglycan (^35 S-GAG) released from labeled bovine cartilage explants.
Knee joints from a 1 to 3 week old calf were obtained immediately after sacrifice from the Abattoir and then transported on ice. The intact joints were washed well with tap water and soaked in 50% (v/v) Povidine iodine solution, obtained from Burre National, Inc., Baltimore, Md. All subsequent steps were performed in a laminar flow tissue culture hood using standard sterile technique. The joint was immobilized in a shank holder and the joint capsule was cut open to expose the articular cartilage. Cartilage explant plugs, approximately 15 mg wet weight, were removed from the flat articulating surfaces in the lower-most region of the knee joint using a sterile steel cork-borer and collected in a 250 mL roller bottle containing about 100 mL fresh Delbecco's minimum essential medium (DMEM), obtained from Gibco BRC, Life Technologies, Gaithersburg, Md., containing 4.5 g/l (D)-glucose and (L)-glutamine, without sodium pyruvate. The fresh media also contained enough Hepes buffer and sodium bicarbonate such that the pH was about 7.4. The media was then further supplemented just before use with 100 units Penicillin, 100 μg Streptomycin, and 50 μg (L)-ascorbic acid per mL of medium.
Once collected, the explant plugs were washed four times with 50 mL fresh DMEM. The plugs were then placed in the incubator for a minimum of 1 hour to equilibrate, before proceeding to make disks from the articulating surface of each plug. A 1 mm thick disk was sliced from individual plugs from the end that was the articulating surface of the joint. The plug was held steady in the sterile template (4 mm diameter×1.5 mm deep) using sterile forceps. A scalpel blade was used to carefully slice off the disk. Only the superficial articulating surface responded well in culture.
Individual disks obtained were transferred to a tissue culture flask containing about 100 mL fresh media. The flask containing the disks was placed in an incubator at 37° C. (with 5% CO2, 95% air) and allowed to equilibrate overnight and at least one additional day before labeling. When ready to label, the old media was replaced with 50 mL fresh media containing about 500 μCi ^35 S-Sodium Sulfate. The plugs were labeled in bulk for about 48 hours. The next morning, the "hot" media was removed and replaced with fresh "cold" media. The disks were again allowed to equilibrate overnight before being used for actual experiments.
The media in which the disks were stored was changed immediately prior to performing the assay. The disks were then returned to the incubator until the test media and the two control media had been prepared. The test media consisted of the desired concentration of a compound being tested for its ability to inhibit extracellular matrix degradation and concomitant recombinant human Interleukin rhIL-1α (5 ng/mL) in fresh DMEM solution. The control media were identical to the test media, except that the first control media lacked rhIL-1α and the second control media lacked the test compound. 250 μL of each of the test and control media were transferred to separate 96-well TC plates. Flamed forceps were used to transfer a disk from the incubator to each 96-well TC plates that had been filled with either the test media or one of the two control media.
The TC plates were then placed in the incubator and cultured for 3-4 days (initial incubation with rhIL-1α alpha takes at least 3 days to stimulate endogenous metalloproteinases). A 50 μL aliquot of media from each TC plate was saved and counted. The rest of the media was removed with a suction device.
The cartilage disks from each TC plate were also saved for counting. […]

[2] = molecular target: T1, 72 kD gelatinase (Homo sapiens, UniProt P08253); test: Assay of 72 KD gelatinase inhibition activity; format: biochemical; conditions: 72KD gelatinase 180 pM, H-150 buffer pH 7.4; read-out: Ki(app)
T1 sequence (P08253 110-660): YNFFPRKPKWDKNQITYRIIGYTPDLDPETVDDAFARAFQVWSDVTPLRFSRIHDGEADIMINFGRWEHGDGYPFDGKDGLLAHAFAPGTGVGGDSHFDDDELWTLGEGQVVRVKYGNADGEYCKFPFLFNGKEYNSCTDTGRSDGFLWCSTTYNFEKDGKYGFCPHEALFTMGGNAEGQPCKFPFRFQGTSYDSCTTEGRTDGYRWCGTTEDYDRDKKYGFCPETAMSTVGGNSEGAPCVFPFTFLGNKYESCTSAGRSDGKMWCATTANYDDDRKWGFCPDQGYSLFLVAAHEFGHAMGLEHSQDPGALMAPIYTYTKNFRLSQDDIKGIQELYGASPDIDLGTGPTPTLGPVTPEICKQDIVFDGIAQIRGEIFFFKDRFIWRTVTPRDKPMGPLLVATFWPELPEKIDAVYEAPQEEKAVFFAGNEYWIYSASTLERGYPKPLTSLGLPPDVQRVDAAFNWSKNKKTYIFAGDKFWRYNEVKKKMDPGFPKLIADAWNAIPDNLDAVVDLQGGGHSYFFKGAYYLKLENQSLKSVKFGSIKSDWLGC
Method: H-150 buffer, pH 7.4, was prepared by CaCl2 H2O (1.47 grams), NaCl (8.77 grams) and N-[2 -hydroxyethyl]piperazine-N'-[2-ethanesulfonic acid](23.83 grams) to distilled and deionized water and then bring the final volume of the solution to 1 liter. An reaction mixture having a final volume of 250 μL was prepared with H-150 buffer, 40 μgrams of Pro-72KD gelatinase (Strongin, et al., J. Biol. Chem. 268:14033 (1993); Goldberg, et al., J. Biol. Chem., 267:4583 (1992); Kleiner, et al., Biochemistry 32:1583 (1993)) and p-aminophenyl mercuric acetate (Sigma Chemical Co., St. Louis, Mo.) (1 mM). The reaction mixture was then incubated for 3 hours at 25° C.
The reaction mixture was applied to a NAP-5 column (G-25 SEPHADEX™, Pharmacia). Fractions containing […] were identified using 12% SDS polyacrylamide gel electrphoresis and concentrated to about 100-200 μliters by centrifigation (5000 g, 15 minutes).
A solution containing H-150 buffer (2.0 mL), 72KD gelatinase (180 pM) and ethylphenolpoly(ethylene-glycolether)n (Boerhringer Mannheim) (1.3 μM) was prepared in a stirred cuvette. Coumarin peptide substrate (2 μL of a 1 mM solution in dimethyl sulfoxide) was added to the reaction mixture. The rate of hydrolysis was determined for about 100-200 seconds by measuring the fluorescence of the reaction at ex328 nanometers and […] using a Hitachi F-2000 Fluorescence Spectrophotometer.
2 μL of a 10 mM inhibitor stock solution (in dimethyl sulfoxide) is added and the reduction in the rate of hydrolysis is determined. Additional 2 μL aliquots of the stock inhibitor solution is added until a 30% to 70% inhibition is observed. Ki is calculated on the assumption of simple competitive inhibition and that the substrate concentration is much less than Km.

Ki [2] [nM]	SMILES	inhibition at 25 µM ([1]; 25 μM compound) [%]	inhibition at 50 µM ([1]; 50 μM compound) [%]	inhibition at 10 µM ([1]; 10 μM compound) [%]
1.95	CC(C)C[C@H](NC(=O)[C@H](Cc1ccccc1)NC(=O)OCc1ccccc1)C(=O)Nc1n[nH]c(=S)s1 [5-(N-benzyloxycarbonyl-phenylalanyl-leucylamino)-1,3,4-thiadiazole-2-thione]		33	
4.6	CC(C)[C@H](NC(=O)[C@H](Cc1ccccc1)NC(=O)OCc1ccccc1)C(=O)Nc1n[nH]c(=S)s1 [5-(N-benzyloxycarbonyl-phenylalanyl-valylamino)-1,3,4-thiadiazole-2-thione]			40

SMILES	Ki [2] [nM]	inhibition at 25 µM ([1]; 25 μM compound) [%]	inhibition at 50 µM ([1]; 50 μM compound) [%]	inhibition at 10 µM ([1]; 10 μM compound) [%]
O=C(N[C@@H](Cc1ccc(OCc2ccccc2)cc1)C(=O)N[C@H](C(=O)Nc1n[nH]c(=S)s1)c1ccccc1)OCc1ccccc1	0.145	20		
